Results as given in patent US20230081426A1, “COMPOUNDS AND METHODS FOR KRAS MODULATION AND INDICATIONS THEREFOR” (Plexxikon Inc., priority 2020, published 2023).

Experiments:
[1] = molecular target: T1, G12D-mutant human KRAS (amino acid residues 1-188) (Homo sapiens, UniProt P01116, G12D); assay: KRAS Binding Disruption Assay (AlphaScreen; biotinylated KRpep-2d analogue or RAF1-RBD), G12D; conditions: KRAS G12D; geometric mean; read-out: KRAS GMean IC50 (uM) MUTATION: G12D
T1 construct: G12D or G12C-mutant human KRAS (amino acid residues 1-188) with FLAG tag; made in house; host or cells: E. coli
In short: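 AlphaScreen readout: signal falls as compound displaces biotinylated KRpep-2d analogue or RAF1-RBD from mutant KRAS. Both partners at 5-20 nM, 1 h binding at 25° C, then 10 μg/mL Anti-Flag acceptor and streptavidin donor beads for 1 h. IC50 by nonlinear regression of % inhibition.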

[2] = molecular target: T2, G12V-mutant human KRAS (amino acid residues 1-188) (Homo sapiens, UniProt P01116, G12V); assay: KRAS Binding Competition Assay (AlphaScreen; biotinylated KRpep-2d analogue), G12V; conditions: geometric mean, read-out: KRAS GMean IC50 (uM) MUTATION: G12V
T2 construct: G12V-mutant human KRAS (amino acid residues 1-188) with FLAG tag was purified from E. coli; made in house; host or cells: E. coli
Protocol: Compound binding disrupts the interaction of KRpep-2d with KRAS, leading to a decrease in Alpha signal.
All assay components were prepared in 20 mM HEPES (pH 7.5), 100 mM NaCl, 5 mM MgCl2, 0.01% Tween-20, and 0.01% BSA. Biotinylated analogues of KRpep-2d were custom synthesized. The binding competition assays were performed using 10 nM of mutant KRAS and 10 nM of biotinylated KRpep-2d analogue. 19 μL of KRAS protein and 4 μL of biotinylated KRpep-2d were added to the wells of a 384-well plate containing 1 μL of various concentrations of test compound or DMSO vehicle. 16 wells containing KRAS, biotinylated KRpep-2d, and 5% DMSO served as high controls. 16 wells containing KRAS only and 5% DMSO served as low controls. Binding reactions were incubated for 1 hour at 25° C., then Anti-Flag Acceptor and Streptavidin Donor Alpha beads were added at a final concentration of 10 μg/mL for an additional hour at room temperature. Alpha signal was read out on a Perkin Elmer Envision HTS instrument. The percentage inhibition at individual compound concentrations relative to high and low controls was calculated. The data were analyzed by using nonlinear regression to generate IC50 values.

IC50 [1] | IC50 [2] | SMILES
0.0001 to 10 µM | 10 to 100 µM | CN1CCC[C@H]1COc1nc(N2CCC3CCC(C2)N3)c2cc(Cl)c(-c3cc(O)cc4ccccc34)c(F)c2n1 (stereo partly drawn) [P-0046, 4-(4-(3,9-diazabicyclo[4.2.1]nonan-3-yl)-6-chloro-8-fluoro-2-(((S)-1-methylpyrrolidin-2-yl)methoxy)quinazolin-7-yl)naphthalen-2-ol]
0.0001 to 10 µM | 0.0001 to 10 µM | Oc1cc(-c2c(Cl)cc3c(N4C[C@H]5CC[C@@H](C4)N5)nc(OCC45CCCN4CC(F)(F)C5)nc3c2F)c2ccccc2c1 (stereo partly drawn) [P-0047, 4-(4-((1R,5S)-3,8-diazabicyclo[3.2.1]octan-3-yl)-6-chloro-2-((2,2-difluorotetrahydro-1H-pyrrolizin-7a(5H)-yl)methoxy)-8-fluoroquinazolin-7-yl)naphthalen-2-ol]
0.0001 to 10 µM | 10 to 100 µM | CN1CCC[C@H]1COc1nc(N2CC3CCC2CN3)c2ccc(-c3cc(O)cc4ccccc34)cc2n1 (stereo partly drawn) [P-0050, 4-(4-(2,5-diazabicyclo[2.2.2]octan-2-yl)-2-(((S)-1-methylpyrrolidin-2-yl)methoxy)quinazolin-7-yl)naphthalen-2-ol]
0.0001 to 10 µM | 10 to 100 µM | Oc1cc(-c2ccc3c(C4=C[C@@H]5CC[C@H](C4)N5)nc(OCC45CCCN4CCC5)nc3c2)c2ccccc2c1 [P-0054, 4-(4-((1S,5R)-8-azabicyclo[3.2.1]oct-2-en-3-yl)-2-((tetrahydro-1H-pyrrolizin-7a(5H)-yl)methoxy)quinazolin-7-yl)naphthalen-2-ol]
0.0001 to 10 µM | 0.0001 to 10 µM | CN1C[C@H](F)C[C@H]1COc1nc(N2C[C@H]3CC[C@@H](C2)N3)c2ccc(-c3cc(O)cc4ccccc34)cc2n1 [P-0072, 4-(4-((1R,5S)-3,8-diazabicyclo[3.2.1]octan-3-yl)-2-(((2S,4R)-4-fluoro-1-methylpyrrolidin-2-yl)methoxy)quinazolin-7-yl)naphthalen-2-ol]
0.0001 to 10 µM | 0.0001 to 10 µM | Cc1cccc2cc(O)cc(-c3ccc4c(N5C[C@H]6CC[C@@H](C5)N6)nc(OC[C@@H]5CCCN5C)nc4c3F)c12 [P-0073, 4-(4-((1R,5S)-3,8-diazabicyclo[3.2.1]octan-3-yl)-8-fluoro-2-(((S)-1-methylpyrrolidin-2-yl)methoxy)quinazolin-7-yl)-5-methylnaphthalen-2-ol]
0.0001 to 10 µM | 0.0001 to 10 µM | O=C(NC1CCCC1)N1[C@@H]2CC[C@H]1CN(c1nc(OCC34CCCN3CCC4)nc3cc(-c4cc(O)cc5ccccc45)ccc13)C2 [P-0075, (1R,5S)-N-cyclopentyl-3-(7-(3-hydroxynaphthalen-1-yl)-2-((tetrahydro-1H-pyrrolizin-7a(5H)-yl)methoxy)quinazolin-4-yl)-3,8-diazabicyclo[3.2.1]octane-8-carboxamide]
0.0001 to 10 µM | 10 to 100 µM | Oc1cc(-c2ccc3c(N4C[C@H]5CC[C@@H](C4)N5)nc(OC[C@@H]4CCCN4CCF)nc3c2)c2ccccc2c1 [P-0077, 4-(4-((1R,5S)-3,8-diazabicyclo[3.2.1]octan-3-yl)-2-(((S)-1-(2-fluoroethyl)pyrrolidin-2-yl)methoxy)quinazolin-7-yl)naphthalen-2-ol]
0.0001 to 10 µM | 10 to 100 µM | CN1CCC[C@@H](COc2nc(N3C[C@H]4CC[C@@H](C3)N4)c3ccc(-c4cc(O)cc5ccccc45)cc3n2)C1 [P-0078, 4-(4-((1R,5S)-3,8-diazabicyclo[3.2.1]octan-3-yl)-2-(((R)-1-methylpiperidin-3-yl)methoxy)quinazolin-7-yl)naphthalen-2-ol]
0.0001 to 10 µM | 10 to 100 µM | CN1CCCC[C@H]1COc1nc(N2C[C@H]3CC[C@@H](C2)N3)c2ccc(-c3cc(O)cc4ccccc34)cc2n1 [P-0079, 4-(4-((1R,5S)-3,8-diazabicyclo[3.2.1]octan-3-yl)-2-(((S)-1-methylpiperidin-2-yl)methoxy)quinazolin-7-yl)naphthalen-2-ol]
0.0001 to 10 µM | 10 to 100 µM | CCN1CCC[C@H]1COc1nc(N2C[C@H]3CC[C@@H](C2)N3)c2ccc(-c3cc(O)cc4ccccc34)cc2n1 [P-0080, 4-(4-((1R,5S)-3,8-diazabicyclo[3.2.1]octan-3-yl)-2-(((S)-1-ethylpyrrolidin-2-yl)methoxy)quinazolin-7-yl)naphthalen-2-ol]
0.0001 to 10 µM | 0.0001 to 10 µM | Cc1cccc2cc(O)cc(-c3c(F)cc4c(N5C[C@H]6CC[C@@H](C5)N6)nc(OC[C@@H]5CCCN5C)nc4c3F)c12 [P-0087, 4-(4-((1R,5S)-3,8-diazabicyclo[3.2.1]octan-3-yl)-6,8-difluoro-2-(((S)-1-methylpyrrolidin-2-yl)methoxy)quinazolin-7-yl)-5-methylnaphthalen-2-ol]
0.0001 to 10 µM | 0.0001 to 10 µM | CC(=O)OCC(=O)N1[C@@H]2CC[C@H]1CN(c1nc(OCC34CCCN3CCC4)nc3cc(-c4cc(O)cc5ccccc45)ccc13)C2 [P-0089, 2-((1R,5S)-3-(7-(3-hydroxynaphthalen-1-yl)-2-((tetrahydro-1H-pyrrolizin-7a(5H)-yl)methoxy)quinazolin-4-yl)-3,8-diazabicyclo[3.2.1]octan-8-yl)-2-oxoethyl acetate]
0.0001 to 10 µM | 0.0001 to 10 µM | CCOC(=O)CNC(=O)N1[C@@H]2CC[C@H]1CN(c1nc(OCC34CCCN3CCC4)nc3cc(-c4cc(O)cc5ccccc45)ccc13)C2 [P-0090, ethyl ((1R,5S)-3-(7-(3-hydroxynaphthalen-1-yl)-2-((tetrahydro-1H-pyrrolizin-7a(5H)-yl)methoxy)quinazolin-4-yl)-3,8-diazabicyclo[3.2.1]octane-8-carbonyl)glycinate]
0.0001 to 10 µM | 0.0001 to 10 µM | CC(=O)NCC(=O)N1[C@@H]2CC[C@H]1CN(c1nc(OCC34CCCN3CCC4)nc3cc(-c4cc(O)cc5ccccc45)ccc13)C2 [P-0091, N-(2-((1R,5S)-3-(7-(3-hydroxynaphthalen-1-yl)-2-((tetrahydro-1H-pyrrolizin-7a(5H)-yl)methoxy)quinazolin-4-yl)-3,8-diazabicyclo[3.2.1]octan-8-yl)-2-oxoethyl)acetamide]
0.0001 to 10 µM | 0.0001 to 10 µM | O=C(CN1CCCS1(=O)=O)N1[C@@H]2CC[C@H]1CN(c1nc(OCC34CCCN3CCC4)nc3cc(-c4cc(O)cc5ccccc45)ccc13)C2 [P-0092, 2-(1,1-dioxidoisothiazolidin-2-yl)-1-((1R,5S)-3-(7-(3-hydroxynaphthalen-1-yl)-2-((tetrahydro-1H-pyrrolizin-7a(5H)-yl)methoxy)quinazolin-4-yl)-3,8-diazabicyclo[3.2.1]octan-8-yl)ethan-1-one]
0.0001 to 10 µM | 0.0001 to 10 µM | NS(=O)(=O)CCC(=O)N1[C@@H]2CC[C@H]1CN(c1nc(OCC34CCCN3CCC4)nc3cc(-c4cc(O)cc5ccccc45)ccc13)C2 [P-0093, 3-((1R,5S)-3-(7-(3-hydroxynaphthalen-1-yl)-2-((tetrahydro-1H-pyrrolizin-7a(5H)-yl)methoxy)quinazolin-4-yl)-3,8-diazabicyclo[3.2.1]octan-8-yl)-3-oxopropane-1-sulfonamide]
0.0001 to 10 µM | 0.0001 to 10 µM | O=C(O)CNC(=O)N1[C@@H]2CC[C@H]1CN(c1nc(OCC34CCCN3CCC4)nc3cc(-c4cc(O)cc5ccccc45)ccc13)C2 [P-0094, ((1R,5S)-3-(7-(3-hydroxynaphthalen-1-yl)-2-((tetrahydro-1H-pyrrolizin-7a(5H)-yl)methoxy)quinazolin-4-yl)-3,8-diazabicyclo[3.2.1]octane-8-carbonyl)glycine]
0.0001 to 10 µM | 10 to 100 µM | Oc1cc(-c2ccc3c(N4C[C@H]5CC[C@@H](C4)N5)nc(OCC45CCCCN4CCCC5)nc3c2)c2ccccc2c1 [P-0095, 4-(4-((1R,5S)-3,8-diazabicyclo[3.2.1]octan-3-yl)-2-((octahydro-9aH-quinolizin-9a-yl)methoxy)quinazolin-7-yl)naphthalen-2-ol]
0.0001 to 10 µM | 0.0001 to 10 µM | O=C(NC1CCNC1)N1[C@@H]2CC[C@H]1CN(c1nc(OCC34CCCN3CCC4)nc3cc(-c4cc(O)cc5ccccc45)ccc13)C2 (stereo partly drawn) [P-0097, (1R,5S)-3-(7-(3-hydroxynaphthalen-1-yl)-2-((tetrahydro-1H-pyrrolizin-7a(5H)-yl)methoxy)quinazolin-4-yl)-N-(pyrrolidin-3-yl)-3,8-diazabicyclo[3.2.1]octane-8-carboxamide]
0.0001 to 10 µM | 0.0001 to 10 µM | O=C(OC1CCOC1)N1[C@@H]2CC[C@H]1CN(c1nc(OCC34CCCN3CCC4)nc3cc(-c4cc(O)cc5ccccc45)ccc13)C2 (stereo partly drawn) [P-0098, Tetrahydrofuran-3-yl (1R,5S)-3-(7-(3-hydroxynaphthalen-1-yl)-2-((tetrahydro-1H-pyrrolizin-7a(5H)-yl)methoxy)quinazolin-4-yl)-3,8-diazabicyclo[3.2.1]octane-8-carboxylate]
